Source: patent US6620828B2, “Thiazole compounds and pharmaceutical compositions for inhibiting protein kinases and methods for their use” (Agouron Pharmaceuticals, Inc., priority 1999, dated 2003)

Key:
Type in all cases: biochemical
[1] = molecular target: T1, unphosphorylated VEGF-R2Δ50 (FLVK) (Homo sapiens, UniProt P35968, DEL940-989/E990V); test: VEGF-R2 coupled spectrophotometric assay, unphosphorylated enzyme (FLVK); conditions: Table 3; some entries 'Slow binder'
T1 construct: VEGF-R2Δ50 contains residues 806-939 and 990-1171; made in house; host or cells: baculovirus/insect cells
From the text: VEGF-R2 Construct for Assay: This construct determines the ability of a test compound to inhibit tyrosine kinase activity. A construct (VEGF-R2Δ50) of the cytosolic domain of human vascular endothelial growth factor receptor 2 (VEGF-R2) lacking the 50 central residues of the 68 residues of the kinase insert domain was expressed in a baculovirus/insect cell system. Of the 1356 residues of full-length VEGF-R2, VEGF-R2Δ50 contains residues 806-939 and 990-1171, and also one point mutation (E990V) within the kinase insert domain relative to wild-type VEGF-R2. Autophosphorylation of the purified construct was performed by incubation of the enzyme at a concentration of 4 μM in the presence of 3 mM ATP and 40 mM MgCl2 in 100 mM Hepes, pH 7.5, containing 5% glycerol and 5 mM DTT, at 4° C. for 2 h. […] See Parast et al., Biochemistry, 37, 16788-16801 (1998).
The production of ADP from ATP that accompanies phosphoryl transfer was coupled to oxidation of NADH using phosphoenolpyruvate (PEP) and a system having pyruvate kinase (PK) and lactic dehydrogenase (LDH). The oxidation of NADH was monitored by following the decrease of absorbance at 340 nm (e340=6.22 cm^−1 mM^−1) using a Beckman DU 650 spectrophotometer. Assay conditions for phosphorylated VEGF-R2Δ50 (indicated as FLVK-P in the tables below) were the following: 1 mM PEP; 250 μM NADH; 50 units of LDH/mL; 20 units of PK/mL; 5 mM DTT; 5.1 mM poly(E4Y1); 1 mM ATP; and 25 mM MgCl2 in 200 mM Hepes, pH 7.5. Assay conditions for unphosphorylated VEGF-R2Δ50 (indicated as FLVK in the tables) were the following: 1 mM PEP; 250 μM NADH; 50 units of LDH/mL; 20 units of PK/mL; 5 mM DTT; 20 mM poly(E4Y1); 3 mM ATP; and 60 mM MgCl2 and 2 mM MnCl2 in 200 mM Hepes, pH 7.5. Assays were initiated with 5 to 40 nM of enzyme. Ki values were determined by measuring enzyme activity in the presence of varying concentrations of test compounds. The data were analyzed using Enzyme Kinetic and Kaleidagraph software.

FL-CHK1 = molecular target: T2, FL-CHK1 (Homo sapiens, UniProt O14757); test: CHK1 assay; conditions: 20 μM; combinatorial library compounds
T2 construct: C-terminally His-tagged full-length human CHK1 (FL-CHK1); 6xHis (C); made in house; host or cells: baculovirus/insect cells
T2 sequence (O14757 1-476): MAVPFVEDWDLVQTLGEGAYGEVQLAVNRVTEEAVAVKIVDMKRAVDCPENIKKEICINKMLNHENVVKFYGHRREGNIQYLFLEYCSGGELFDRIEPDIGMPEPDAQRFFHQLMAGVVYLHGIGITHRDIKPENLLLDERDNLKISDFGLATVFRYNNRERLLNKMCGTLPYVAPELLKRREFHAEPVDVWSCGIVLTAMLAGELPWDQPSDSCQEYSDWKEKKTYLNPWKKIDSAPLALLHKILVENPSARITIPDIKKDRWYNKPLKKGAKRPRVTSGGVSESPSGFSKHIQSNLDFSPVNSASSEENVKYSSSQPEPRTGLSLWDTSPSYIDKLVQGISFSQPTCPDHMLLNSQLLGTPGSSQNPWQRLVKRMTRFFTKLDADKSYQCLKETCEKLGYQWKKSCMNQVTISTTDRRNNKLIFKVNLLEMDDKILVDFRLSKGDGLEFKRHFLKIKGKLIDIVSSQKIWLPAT
Procedure, shortened: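 Full-length human CHK1 with C-terminal 6×His tag, made in baculovirus/insect cells, 10 nM, phosphorylating 0.125 mM Syntide-2 with 0.15 mM ATP in 50 mM Tris pH 7.5, 25 mM MgCl2, 400 mM NaCl. PK/LDH-coupled NADH oxidation read at 340 nm. Ki from initial rates over varied compound concentrations.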

CDK4/Cyclin D3 complex = molecular target: T3, CDK4/Cyclin D3 complex (Homo sapiens, UniProt P11802); test: CDK4/Cyclin D assay; conditions: 1.0 μM; combinatorial library compounds
T3 construct: made in house; host or cells: insect cells co-infected with baculovirus vectors
Procedure, shortened: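 Insect-cell-expressed CDK4/cyclin D3 (50 nM) phosphorylating His-tagged Rb fragment (residues 386-928) with 25 μM [^32P]ATP in HEPES pH 7.4, MgCl2, 2% DMSO; 20 min at 30 °C, EDTA stop. Filter-captured 32P by phosphorimager; apparent Ki from competitive or tight-binding inhibition fits.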

[2] = molecular target: T4, phosphorylated VEGF-R2Δ50 (FLVK-P) (Homo sapiens, UniProt P35968, DEL940-989/E990V); test: VEGF-R2 coupled spectrophotometric (FLVK-P) assay; conditions: combinatorial library compounds; for inhibition at 20 µM: read-out: VEGF % inhibition at 20 μM, 20 μM
T4 construct: VEGF-R2Δ50 contains residues 806-939 and 990-1171; made in house; host or cells: baculovirus/insect cells
Procedure, shortened: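 Baculovirus-expressed human VEGF-R2Δ50 (residues 806-939/990-1171, E990V) was autophosphorylated with 3 mM ATP, 40 mM MgCl2 for 2 h at 4° C. ADP formation was coupled via PK/LDH to NADH oxidation, read at 340 nm, with 5.1 mM poly(E4Y1), 1 mM ATP, 25 mM MgCl2, Hepes pH 7.5. Ki came from activity across compound concentrations.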

CDK2/Cyclin A complex = CDK2/Cyclin A complex (Homo sapiens, UniProt P24941); test: CDK2/Cyclin A assay; conditions: 1.0 μM; combinatorial library compounds
Procedure, shortened: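 Radiometric assay: 150 nM CDK2/cyclin A (insect-cell CDK2, truncated cyclin A) phosphorylates His-tagged Rb fragment (residues 386-928) with 25 μM ATP plus [32P]ATP, pH 7.4 HEPES, 2% DMSO, 30 °C for 20 min. Filter-captured product counted by phosphorimager; apparent Ki from competitive or tight-binding inhibition fits.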

T3 sequence (P11802 whole entry): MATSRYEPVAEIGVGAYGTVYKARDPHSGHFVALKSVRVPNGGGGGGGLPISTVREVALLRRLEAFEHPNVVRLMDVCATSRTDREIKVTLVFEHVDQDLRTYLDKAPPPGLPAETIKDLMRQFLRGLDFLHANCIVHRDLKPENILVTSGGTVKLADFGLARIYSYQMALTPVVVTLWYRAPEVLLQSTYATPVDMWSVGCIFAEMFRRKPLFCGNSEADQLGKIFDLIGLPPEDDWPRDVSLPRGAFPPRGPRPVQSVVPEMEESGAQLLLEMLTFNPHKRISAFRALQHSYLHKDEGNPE
T3 sequence (P30281 whole entry partner): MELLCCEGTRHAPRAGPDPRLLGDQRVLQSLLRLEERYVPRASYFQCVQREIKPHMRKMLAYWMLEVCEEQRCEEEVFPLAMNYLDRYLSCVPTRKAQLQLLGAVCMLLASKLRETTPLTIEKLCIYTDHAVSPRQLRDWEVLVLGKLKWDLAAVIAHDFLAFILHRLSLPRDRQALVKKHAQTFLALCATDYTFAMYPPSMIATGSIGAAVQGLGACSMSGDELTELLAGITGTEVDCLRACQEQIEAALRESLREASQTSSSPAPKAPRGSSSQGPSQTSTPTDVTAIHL
T4 sequence (P35968 with tags, fused parts or gaps DEL940-989/E990V limits assumed): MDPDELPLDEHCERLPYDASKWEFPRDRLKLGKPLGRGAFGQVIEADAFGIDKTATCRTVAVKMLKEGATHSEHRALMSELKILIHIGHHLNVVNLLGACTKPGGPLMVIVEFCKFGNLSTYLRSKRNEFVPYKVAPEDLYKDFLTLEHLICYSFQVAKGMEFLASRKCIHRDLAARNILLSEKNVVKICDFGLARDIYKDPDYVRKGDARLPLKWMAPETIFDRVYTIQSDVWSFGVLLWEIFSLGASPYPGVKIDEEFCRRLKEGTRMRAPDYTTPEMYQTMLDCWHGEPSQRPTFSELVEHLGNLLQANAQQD
T1 sequence (P35968 with tags, fused parts or gaps DEL940-989/E990V limits assumed): as above

Ki [1] [nM] | inhibition at 20 µM (FL-CHK1) [%] | inhibition at 1 µM (CDK4/Cyclin D3 complex) [%] | inhibition at 20 µM [2] [%] | inhibition at 1 µM (CDK2/Cyclin A complex) [%] | CDK4 % Inhibition at 1.0 μM (CDK4/Cyclin D3 complex) [%] | CDK2 % Inhibition at 1.0 μM (CDK2/Cyclin A complex) [%] | CHK1 % Inhibition at 20 μM (FL-CHK1) [%] | VEGF % inhibition at 20 μM [2] [%] | Structure (SMILES)
0.7 | – | – | – | – | – | – | – | – | Cc1ccc(NC(=O)C(O)CC(C)C)cc1-c1noc(-c2sc(Nc3cccc(CN4CCCC4)c3)nc2N)n1 (racemic) [B(11), (R,S)-3-[3-(2-hydroxy-4-methylpentanoyl)amino]-6-methylphenyl]-5-[2-(3-methylpyrrolidinephenyl)amino]-4-amino-5-thiazolyl]-1,2,4 oxadiazole]
2.3 | – | – | – | – | – | – | – | – | COc1cc(Nc2nc(N)c(-c3nc(-c4cc(NC(=O)OC(C)(C)C)ccc4F)no3)s2)cc(OC)c1OC [B(5), 3-(3-(tert-butyloxycarboxyamino)-6-fluoro-phenyl)-5-[2-[(3,4,5-trimethoxyphenyl)amino]-4-amino-5-thiazolyl]-1,2,4-oxadiazole]
– | 14.7 | 79.2 | 32 | 63 | – | – | – | – | Nc1nc(Nc2ccc(S(N)(=O)=O)cc2)sc1-c1nc(-c2ccc(Cl)cc2Cl)cs1 [drawing 406]
– | 33.7 | 61.2 | 43 | 74.7 | – | – | – | – | Nc1nc(Nc2ccc(S(N)(=O)=O)cc2)sc1-c1nc(-c2ccc(F)cc2)cs1 [drawing 409]
– | 18.7 | 51.3 | 56 | 57.9 | – | – | – | – | Nc1nc(Nc2ccc(S(N)(=O)=O)cc2)sc1-c1nc(-c2ccc(O)cc2)cs1 [drawing 415]
– | 11.2 | – | 23 | – | −33.4 | 8.2 | – | – | Nc1nc(Nc2ccc(S(N)(=O)=O)cc2)sc1-c1nc(-c2ccccc2)cs1 [drawing 421]
– | – | 59.9 | 23 | 67 | – | – | 28.4 | – | Cc1c(-c2csc(-c3sc(Nc4ccc(S(N)(=O)=O)cc4)nc3N)n2)sc2ccc(Cl)cc12 [drawing 424]
– | – | – | – | – | 40.9 | 54.2 | 10.7 | 11 | COc1ccc(-c2csc(-c3sc(Nc4ccc(S(N)(=O)=O)cc4)nc3N)n2)cc1 [drawing 425]
– | – | – | – | – | 70.6 | 56 | 9.7 | 19 | Cc1c(-c2csc(-c3sc(Nc4ccc(S(N)(=O)=O)cc4)nc3N)n2)sc2ccc(Cl)cc12 [drawing 426]
– | – | – | – | – | 43.3 | 60.8 | 12.3 | 34 | Nc1nc(Nc2ccc(S(N)(=O)=O)cc2)sc1-c1nc(-c2ccccc2)cs1 [drawing 435]
– | 21.1 | 75 | 5 | 68 | – | – | – | – | Cc1c(F)cc(-c2csc(-c3sc(Nc4ccc(S(N)(=O)=O)cc4)nc3N)n2)cc1Cl [drawing 440]
– | 21.6 | 58.2 | 40 | 74.1 | – | – | – | – | Nc1nc(Nc2ccc(S(N)(=O)=O)cc2)sc1-c1nc(-c2ccc(F)cc2F)cs1 [drawing 445]
– | – | 60.9 | 19 | 27.8 | – | – | 4.7 | – | COc1ccc(-c2csc(-c3sc(Nc4ccc(C(C)C)cc4)nc3N)n2)cc1 [drawing 462]
– | – | – | – | 23.3 | −42.5 | – | 4 | −4 | CC(C)c1ccc(Nc2nc(N)c(-c3nc(-c4ccccc4)cs3)s2)cc1 [drawing 484]
– | 32.3 | 79.6 | 47 | 38.6 | – | – | – | – | Cc1c(-c2csc(-c3sc(Nc4ccc(C(C)C)cc4)nc3N)n2)sc2ccc(Cl)cc12 [drawing 487]
– | – | – | – | – | 79 | 38.3 | 14.2 | 12 | COc1ccc(-c2csc(-c3sc(Nc4ccc(C(C)C)cc4)nc3N)n2)cc1 [drawing 488]
– | – | – | – | – | 79.9 | 31 | 17.8 | 42 | Cc1c(-c2csc(-c3sc(Nc4ccc(C(C)C)cc4)nc3N)n2)sc2ccc(Cl)cc12 [drawing 489]
– | – | – | – | – | 59.4 | 18.5 | 0.2 | 22 | CC(C)c1ccc(Nc2nc(N)c(-c3nc(-c4ccccc4)cs3)s2)cc1 [drawing 498]
– | – | – | 13 | – | 19.1 | 6.1 | 2.7 | – | COc1ccc(-c2csc(-c3sc(Nc4ccc(N(C)C)cc4)nc3N)n2)cc1 [drawing 525]
– | 13.1 | – | 17 | 17.2 | −48.3 | – | – | – | CN(C)c1ccc(Nc2nc(N)c(-c3nc(-c4ccccc4)cs3)s2)cc1 [drawing 547]
– | 41.9 | 64.3 | 31 | – | – | 17.1 | – | – | Cc1c(-c2csc(-c3sc(Nc4ccc(N(C)C)cc4)nc3N)n2)sc2ccc(Cl)cc12 [drawing 550]
– | – | – | – | – | 83 | 29.8 | 34.8 | 23 | COc1ccc(-c2csc(-c3sc(Nc4ccc(N(C)C)cc4)nc3N)n2)cc1 [drawing 551]
– | – | – | – | – | 65.1 | 37.3 | 26.8 | 29 | Cc1c(-c2csc(-c3sc(Nc4ccc(N(C)C)cc4)nc3N)n2)sc2ccc(Cl)cc12 [drawing 552]
– | – | – | – | – | 65.1 | 19.7 | 17.5 | 30 | CN(C)c1ccc(Nc2nc(N)c(-c3nc(-c4ccccc4)cs3)s2)cc1 [drawing 561]
